The values that follow come from US8481708B2, “snRNA gene-like transcriptional units and uses thereof” (Università degli Studi di Genova, priority 2005, dated 2013).

The structures appear in SMILES notation.

In the experiment the test system is RNA Polymerase III. Description: Promoter activity transfection assay with Pol III inhibitor ML-60218. Format: cell-based, human. The settings on record: after 24 hours of cell treatment with ML-60218 (20 μM); hairpin constructs with novel promoters. The procedure: For transient transfections Hela cells (grown in DMEM supplemented with 10% FCS), were grown in multiwell Petri dishes 16 hours before transfection. The expression [21A, 21A(1), 21A(2), 21A(3)] constructs containing the regions of interest cloned in the pTopo vectors (Invitrogen) were introduced into the cells using the Fugene 6 transfection reagent (Roche) according to the manufacturer's instructions. A plasmid Expressing Luciferase was used as control of transfection efficiency (to which all the results were normalized). 24, 48 and 72 hours after transfection cells were harvested and firely luciferase activity was measured by Dual-Luciferase reporter assay system (Promega). manufacturer's protocol.

As for `Cc1c(-c2cc(NS(=O)(=O)c3ccccc3Cl)n(C)n2)sc2ccc(Cl)cc12` [ML-60218], the luciferase signal entry is on record as “increased”.
